Laboratory results: US11903987B2, “Artificial compositions comprising corosolic acid, oleanolic acid; and ursolic acid in a form of an emulsion, salve, ointment, suspension, or gel” (National Guard Health Affairs, priority 2018, dated 2024)

Assays:
[1] = skin tolerability on tested subjects after topical application; type: in vivo, human
human skin warts = assay: topical treatment of human skin warts; type: in vivo; details: topical application
Procedure: Initial steps involved extracting Tecoma stans leaves with methanol or ethanol alcohol. Then, the extract was obtained via evaporating the alcohol and re-suspending the dry matter in pure DMSO (dimethylsulphoxide) at a concentration of 20 mg/mL DMSO. […] As disclosed herein, 14 compounds have been isolated from dry leaves of Tecoma stans, four of which are known for their antidiabetic effect and ability to reduce the glycemic index. After identifying the 14 compounds in the methanolic extract from the dry leaves, each compound was independently tested on human skin warts. […] Therefore, corosolic acid was mixed with its two related compounds, namely oleanolic acid (FIG. 1E) and ursolic acid (FIG. 1F), isolated from the same extract. Compositions containing a mixture of these three compounds were prepared by mixing the compounds in an ointment at a concentration of 1 mg/gm of each compound per a total weight of the ointment, emulsifying the compounds in a lotion base at a concentration of 0.1 mg/mL of each compound per a total volume of the lotion, or suspending three compounds together in DMSO at a concentration of 1 mg/mL of each compound per a total volume of DMSO. The compositions were applied topically twice a day to the desired skin area as indicated in each case (see FIGS. 3[…]).

Row | Compound | harmlessness on humans / skin irritation [1] | curing effect on skin warts (human skin warts)
1 | C[C@H]1[C@H](C)CC[C@]2(C(=O)O)CC[C@]3(C)C(=CC[C@@H]4[C@@]5(C)CC[C@H](O)C(C)(C)[C@@H]5CC[C@]43C)[C@H]12 [ursolic acid, 3β-Hydroxy-12-ursen-28-ic acid] | harmless on humans, and cause no skin irritations | –
2 | CC1(C)CC[C@]2(C(=O)O)CC[C@]3(C)C(=CC[C@@H]4[C@@]5(C)CC[C@H](O)C(C)(C)[C@@H]5CC[C@]43C)[C@@H]2C1 [oleanolic acid] | harmless on humans, and cause no skin irritations | –
3 | C[C@H]1[C@H](C)CC[C@]2(C(=O)O)CC[C@]3(C)C(=CC[C@@H]4[C@@]5(C)C[C@@H](O)[C@H](O)C(C)(C)[C@@H]5CC[C@]43C)[C@H]12 [corosolic acid, (2α,3β)-2,3-dihydroxyurs-12-en-28-oic acid] | harmless on humans, and cause no skin irritations | minor curing effect
